Structures are written as SMILES.

The nature of series [1]: The drug is tested on Z-028 corresponding to mouse gut metagenome with ENA study accession number: PRJEB37062 and ENA sample accession number: ERS12561827 for biotransformation under anaerobic condition. The drug concentrations were measured over 9 timepoints collected between 0 and 24 hours of incubation by liquid-chromatography-coupled mass spectrometry (LC–MS). The settings on record: 2 µM.

Series [2] is described as follows: The drug is tested on WLS-310 corresponding to human gut metagenome with ENA study accession number: PRJEB37062 and ENA sample accession number: ERS12561785 for biotransformation under anaerobic condition. The drug concentrations were measured over 9 timepoints collected between 0 and 24 hours of incubation by liquid-chromatography-coupled mass spectrometry (LC–MS). The following applies: 2 µM.

For series [3] the following is noted: human gut metagenome, 24 h, 2 µM.
The conditions of series [4]: human gut metagenome, 24 h, 2 µM. This is another data set of the same source.
The conditions of series [5]: human gut metagenome, 24 h, 2 µM. This is another data set of the same source.
The conditions of series [6]: human gut metagenome, 24 h, 2 µM. This is another data set of the same source.
The conditions of series [7]: human gut metagenome, 24 h, 2 µM. This is another data set of the same source.
The conditions of series [8]: human gut metagenome, 24 h, 2 µM. This is another data set of the same source.
For series [9] the following is noted: human gut metagenome, 24 h, 2 µM. The source holds these as a separate data set.
Series [10] in a line: The drug is tested on WLS-240 corresponding to human gut metagenome with ENA study accession number: PRJEB37062 and ENA sample accession number: ERS12561773 for biotransformation under anaerobic condition. The drug concentrations were measured over 9 timepoints collected between 0 and 24 hours of incubation by liquid-chromatography-coupled mass spectrometry (LC–MS). The settings on record: 2 µM.

Series [11] can be described thus: The drug is tested on Z-003 corresponding to pig gut metagenome with ENA study accession number: PRJEB37062 and ENA sample accession number: ERS12561803 for biotransformation under anaerobic condition. The drug concentrations were measured over 9 timepoints collected between 0 and 24 hours of incubation by liquid-chromatography-coupled mass spectrometry (LC–MS). The settings on record: 2 µM.

The nature of series [12]: The drug is tested on Z-026 corresponding to metagenome with ENA study accession number: PRJEB37062 and ENA sample accession number: ERS12561825 for biotransformation under anaerobic condition. The drug concentrations were measured over 9 timepoints collected between 0 and 24 hours of incubation by liquid-chromatography-coupled mass spectrometry (LC–MS). The following applies: 2 µM.

Series [13] is described as follows: The drug is tested on Z-017 corresponding to mouse gut metagenome with ENA study accession number: PRJEB37062 and ENA sample accession number: ERS12561816 for biotransformation under anaerobic condition. The drug concentrations were measured over 9 timepoints collected between 0 and 24 hours of incubation by liquid-chromatography-coupled mass spectrometry (LC–MS). The following applies: 2 µM.

For series [14] the following is noted: human gut metagenome, 24 h, 2 µM. This is another data set of the same source.
For series [15] the following is noted: human gut metagenome, 24 h, 2 µM. This is another data set of the same source.
The conditions of series [16]: human gut metagenome, 24 h, 2 µM. The source holds these as a separate data set.
The conditions of series [17]: human gut metagenome, 24 h, 2 µM. This is another data set of the same source.
A short description of series [18]: The drug is tested on Z-012 corresponding to metagenome with ENA study accession number: PRJEB37062 and ENA sample accession number: ERS12561812 for biotransformation under anaerobic condition. The drug concentrations were measured over 9 timepoints collected between 0 and 24 hours of incubation by liquid-chromatography-coupled mass spectrometry (LC–MS). The settings on record: 2 µM.

Series [19] in a line: The drug is tested on Z-006 corresponding to mouse gut metagenome with ENA study accession number: PRJEB37062 and ENA sample accession number: ERS12561806 for biotransformation under anaerobic condition. The drug concentrations were measured over 9 timepoints collected between 0 and 24 hours of incubation by liquid-chromatography-coupled mass spectrometry (LC–MS). The following applies: 2 µM.

For series [20] the following is noted: human gut metagenome, 24 h, 2 µM. This is another data set of the same source.
Also: call rule not given here.

As to `CC(C)NCC(O)COc1ccc(CCOCC2CC2)cc1` (stereo not given) [BETAXOLOL], the “Bacterial Biotransformation” value is listed as “Compound NOT metabolized” in series [1]; “Compound metabolized” in [2]; “Compound NOT metabolized” in series [3]; “Compound NOT metabolized” in series [4]; “Compound metabolized” in series [5]; “Compound NOT metabolized” in [6]. In addition, the “Bacterial Biotransformation” value was “Compound NOT metabolized” in [7]; “Compound NOT metabolized” in [8]; “Compound NOT metabolized” in series [9]; “Compound metabolized” in [10]; “Compound NOT metabolized” in series [11]; “Compound NOT metabolized” in series [12]. Also, the “Bacterial Biotransformation” value is listed as “Compound NOT metabolized” in series [13]; “Compound NOT metabolized” in [14]; “Compound NOT metabolized” in series [15]; “Compound NOT metabolized” in series [16]; “Compound metabolized” in series [17]; “Compound NOT metabolized” in [18]. Besides, the “Bacterial Biotransformation” value in [19] and in [20] was “Compound NOT metabolized” throughout.
For `CC(C)(Oc1ccc(CCNC(=O)c2ccc(Cl)cc2)cc1)C(=O)O` [BEZAFIBRATE], the “Bacterial Biotransformation” value in series [1] is “Compound NOT metabolized”; in series [2], “Compound metabolized”; in [3] it was “Compound metabolized”; in [4] it was “Compound NOT metabolized”; in series [5], “Compound metabolized”; in series [6] it was “Compound metabolized”. For the same compound, the “Bacterial Biotransformation” value was “Compound metabolized” in series [7]; “Compound metabolized” in [8]; “Compound metabolized” in [9]; “Compound metabolized” in [10]; “Compound metabolized” in [11]; “Compound NOT metabolized” in series [12]. Further, the “Bacterial Biotransformation” value in [13] is listed as “Compound NOT metabolized”; in series [14] it was “Compound NOT metabolized”; in series [15], “Compound NOT metabolized”; in [16], “Compound metabolized”; in series [17] it was “Compound metabolized”; in [18] it was “Compound NOT metabolized”. In addition, the “Bacterial Biotransformation” value in [19] is “Compound NOT metabolized”; in series [20] it was “Compound metabolized”.
As for `CC(O)(CS(=O)(=O)c1ccc(F)cc1)C(=O)Nc1ccc(C#N)c(C(F)(F)F)c1` (stereo not given) [BICALUTAMIDE], the “Bacterial Biotransformation” value in series [1], in [2], in series [3], in series [4], in series [5] and in series [6] was “Compound NOT metabolized” each time. Besides, the “Bacterial Biotransformation” value in [7], in series [8], in series [9], in [10], in [11] and in series [12] was “Compound NOT metabolized” in each case. In addition, the “Bacterial Biotransformation” value in series [13], in series [14], in series [15], in [16], in series [17] and in [18] was “Compound NOT metabolized” in each case. Also, the “Bacterial Biotransformation” value in [19] and in series [20] was “Compound NOT metabolized” in each case.

The values are drawn from ChEMBL document CHEMBL5724914, “Linking interpersonal differences in gut microbiota composition and drug biotransformation activity” (2024).
